Reference: patent US20250147006A1, “MULTI-DEPTH SPIRAL MILLI FLUIDIC DEVICE FOR WHOLE MOUNT ZEBRAFISH ANTIBODY STAINING” (THE REGENTS OF THE UNIVERSITY OF CALIFORNIA, priority 2023, published 2025)
Converted amounts (≈) assume the structure as drawn. Where two headings read alike, the source gives them in different places.

Assays:
zebrafish embryos [1] = settings: for EC50: Danio rerio, 2 h
zebrafish embryos [2] = assay: animal or person; settings: Danio rerio, 2 h, read-out: absolute EC50 (50% effective concentration), tail curvature
zebrafish embryos [3] = settings: 24-well plate

Compound: Cn1c(=O)c2c(ncn2C)n(C)c1=O [caffeine]
- zebrafish embryo survival rate (zebrafish embryos [1]; CGG, 2-hour treatment and 24-hour recovery, compared with well plate): close to the zebrafish embryo tested in the well plate
- hillslope of dose-response curves, tail curvature (zebrafish embryos [1]; CGG, 3 gradients, 2-hour treatment, compared with well plate): greater than the hillslope of well plate-based dose-response curves
- overall frequency of edema occurrences (zebrafish embryos [1]; CGG, after 24-hour recovery at 2 ml/min, compared with well plate): significantly higher in the CGG than in the well plate
- EC50 (zebrafish embryos [1]; read-out: absolute EC50, tail curvature, CGG, measured concentrations (trypan blue intensity), highest inner wall inlet flowrate (150 μl/min), outer wall 300 μl/min, 2-hour treatment): 987 µg/mL (≈ 5.08 mM)
- EC50 (zebrafish embryos [1]; read-out: absolute EC50, tail curvature, CGG, measured concentrations (trypan blue intensity), lowest inner wall inlet flowrate (75 μl/min), outer wall 300 μl/min, 2-hour treatment): 993 µg/mL (≈ 5.11 mM)
- EC50 (zebrafish embryos [1]; read-out: absolute EC50, tail curvature, CGG, measured concentrations (trypan blue intensity), middle inner wall inlet flowrate (100 μl/min), outer wall 300 μl/min, 2-hour treatment): 1080 µg/mL (≈ 5.56 mM)
- EC50 (zebrafish embryos [1]; read-out: absolute EC50, tail curvature, CGG, simulated concentrations, highest inner wall inlet flowrate (150 μl/min), outer wall 300 μl/min, 2-hour treatment): 1210 µg/mL (≈ 6.22 mM)
- EC50 (zebrafish embryos [1]; read-out: absolute EC50, tail curvature, CGG, simulated concentrations, lowest inner wall inlet flowrate (75 μl/min), outer wall 300 μl/min, 2-hour treatment): 1180 µg/mL (≈ 6.05 mM)
- EC50 (zebrafish embryos [1]; read-out: absolute EC50, tail curvature, CGG, simulated concentrations, middle inner wall inlet flowrate (100 μl/min), outer wall 300 μl/min, 2-hour treatment): 1220 µg/mL (≈ 6.28 mM)
- EC50 (zebrafish embryos [2]): 690 µg/mL (≈ 3.56 mM)
- frequency of tail curvature (scoliosis) (zebrafish embryos [3]; after 2-hour caffeine treatment): concentration dependent
- recovery of embryos with tail curvature (zebrafish embryos [3]; after 24 hours culturing in E3 buffer): recovered to normal
- zebrafish embryo survival rate at the end of the experiment (zebrafish embryos [3]; all caffeine concentrations 0.0325-2 mg/mL, 2-hour treatment and 24-hour recovery): over 90%
